In patent publication US20180201614A1, “BICYCLIC COMPOUNDS” (KALYRA PHARMACEUTICALS, INC., priority 2015, published 2018) one finds IC50 data, which are given here for 5 molecules.

In assay [1] the target is EGFR Wt (Homo sapiens, UniProt P00533). The assay can be described thus: EGFR biochemical enzyme assay, Wt.
The test system of assay [2] is PC9 (E746-A750 deletion) cells. The assay can be described thus: EGFR cell proliferation assay (CellTiter-Glo), PC9. The format is cell-based. The following applies: 3-5 days. As to the method:
(§1) Cell Lines: A431 (WT), H1975 (L858R/T790M), PC9 (E746-A750 deletion): A431 cells were grown in DMEM (Invitrogen, Carlsbad, Calif.) supplemented with 10% FBS (HyClone, South Logan, Utah) and 1% Penicillin-Streptomycin (P/S, Lonza, Walkersville, Md.). H1975 cells were grown in RPMI 1640 (Invitrogen) supplemented with 10% FBS and 1% P/S. […] PC-9 cells were obtained from Japan. All cells were maintained and propagated as monolayer cultures at 37° C. in a humidified 5% CO2 incubator. All cells were cultured according to recommendations.
(§2) Cell proliferation was measured using the CellTiter-Glo® Luminescent Cell Viability Assay. The assay involved the addition of a single reagent (CellTiter-Glo® Reagent) directly to cells cultured in serum-supplemented medium. The assay used a one-step addition to induce cell lysis and generate a luminescent signal proportional to the amount of ATP present, which is directly proportional to the number of metabolically active cells present in culture.
(§3) Each compound evaluated was prepared as a DMSO stock solution (10 mM). Compounds were tested in duplicate on each plate, with an 11-point serial dilution curve (1:3 dilution). Compound treatment (50 μL) was added from the compound dilution plate to the cell plate. The highest compound concentration was 1 or 10 μM (final), with a 0.3% final DMSO (#D-5879, Sigma, St Louis, Mo.) concentration. Plates were then incubated at 37° C., 5% CO2. After 3-5 days of compound treatment, CellTiter-Glo® Reagent (#G7573, Promega, Madison, Wis.) was prepared in one of two ways. If thawing a frozen aliquot of CellTiter-Glo® Reagent, the aliquot was thawed and equilibrated to RT prior to use while keeping it protected from light. Alternatively, new bottles of CellTiter-Glo® Buffer and CellTiter-Glo® Substrate were thawed and equilibrated to RT prior to use. CellTiter-Glo® Buffer (100 mL) was transferred into the amber bottle containing CellTiter-Glo® Substrate to reconstitute the lyophilized enzyme/substrate mixture, forming the CellTiter-Glo® Reagent. The reconstituted reagent was mixed by gently inverting the contents to obtain a homogeneous solution, and went into solution easily in less than 1 min. Any unused reconstituted CellTiter-Glo® Reagent was immediately aliquoted and frozen at −20° C., and protected from light. Cell plates were equilibrated at RT for approximately 30 mins. An equi-volume amount of CellTiter-Glo® Reagent (100 μL) was added to each well. Plates were mixed for 2 mins on an orbital shaker to induce cell lysis, and then were allowed to incubate at RT for 10 mins to stabilize the luminescent signal. Luminescence was recorded using the PerkinElmer EnVision Excite Multilabel Reader used for endpoint reading for luminescence detection (Waltham, Mass.). Data was analyzed using a four-parameter fit in Microsoft Excel.

Assay [3] concerns the target IGF1R (Homo sapiens, UniProt P08069). Put plainly: Biochemical enzyme assay, IGF1R.
Assay [4] has as its target INSR (Homo sapiens, UniProt P06213). Put plainly: Biochemical enzyme assay, INSR.
The subject of assay [5] is A431 (WT) cells. Put plainly: EGFR cell proliferation assay (CellTiter-Glo), A431. The settings on record: Homo sapiens, A-431, 3-5 days. The format is cell-based. As to the method: as §1, §2, §3
The target in assay [6] is T1, EGFR Del-19 (Homo sapiens, UniProt P00533).
T1 construct: as on the sister T790M/L858R enzyme
T1 sequence (P00533 with tags, fused parts or gaps DEL746-750): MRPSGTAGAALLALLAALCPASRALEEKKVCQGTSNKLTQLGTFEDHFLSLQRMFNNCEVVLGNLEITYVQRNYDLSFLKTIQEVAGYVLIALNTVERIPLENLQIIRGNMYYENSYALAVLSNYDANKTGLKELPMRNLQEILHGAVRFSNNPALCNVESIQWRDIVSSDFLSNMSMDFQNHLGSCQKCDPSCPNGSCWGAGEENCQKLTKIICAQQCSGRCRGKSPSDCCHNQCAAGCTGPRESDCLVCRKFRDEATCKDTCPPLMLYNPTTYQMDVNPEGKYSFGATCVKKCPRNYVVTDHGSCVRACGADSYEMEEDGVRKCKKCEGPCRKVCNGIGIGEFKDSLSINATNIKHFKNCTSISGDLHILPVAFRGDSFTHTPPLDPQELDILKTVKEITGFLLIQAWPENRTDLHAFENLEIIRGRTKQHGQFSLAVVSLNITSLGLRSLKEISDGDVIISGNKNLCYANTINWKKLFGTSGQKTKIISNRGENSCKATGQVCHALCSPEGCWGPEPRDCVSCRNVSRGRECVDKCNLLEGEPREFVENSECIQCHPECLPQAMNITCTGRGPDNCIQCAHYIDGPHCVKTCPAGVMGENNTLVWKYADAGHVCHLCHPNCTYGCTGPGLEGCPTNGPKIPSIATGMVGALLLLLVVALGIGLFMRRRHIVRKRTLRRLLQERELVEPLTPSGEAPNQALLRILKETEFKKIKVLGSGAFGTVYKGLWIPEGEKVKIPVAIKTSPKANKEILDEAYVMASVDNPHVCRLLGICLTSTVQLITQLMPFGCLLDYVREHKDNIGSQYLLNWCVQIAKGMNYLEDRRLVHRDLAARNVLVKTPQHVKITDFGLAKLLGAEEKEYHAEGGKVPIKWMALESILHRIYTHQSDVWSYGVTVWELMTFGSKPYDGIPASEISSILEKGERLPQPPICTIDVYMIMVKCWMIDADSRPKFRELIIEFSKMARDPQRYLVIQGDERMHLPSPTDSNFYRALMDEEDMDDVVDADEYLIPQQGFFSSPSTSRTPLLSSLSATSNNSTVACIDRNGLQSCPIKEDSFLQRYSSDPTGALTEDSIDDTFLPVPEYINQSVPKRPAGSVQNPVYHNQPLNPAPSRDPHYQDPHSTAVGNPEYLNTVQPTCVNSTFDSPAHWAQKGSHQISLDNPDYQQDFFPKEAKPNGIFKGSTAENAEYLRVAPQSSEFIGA
The assay can be described thus: EGFR biochemical enzyme assay, Del-19.

Assay [7] deals with T2, human EGFR (T790M/L858R) (Homo sapiens, UniProt P00533, L858R/T790M).
T2 construct: with amino acids 696-end containing the T790M and L858R mutations; GST (N); purchased Millipore
T2 sequence (P00533 696-1210 T790M/L858R): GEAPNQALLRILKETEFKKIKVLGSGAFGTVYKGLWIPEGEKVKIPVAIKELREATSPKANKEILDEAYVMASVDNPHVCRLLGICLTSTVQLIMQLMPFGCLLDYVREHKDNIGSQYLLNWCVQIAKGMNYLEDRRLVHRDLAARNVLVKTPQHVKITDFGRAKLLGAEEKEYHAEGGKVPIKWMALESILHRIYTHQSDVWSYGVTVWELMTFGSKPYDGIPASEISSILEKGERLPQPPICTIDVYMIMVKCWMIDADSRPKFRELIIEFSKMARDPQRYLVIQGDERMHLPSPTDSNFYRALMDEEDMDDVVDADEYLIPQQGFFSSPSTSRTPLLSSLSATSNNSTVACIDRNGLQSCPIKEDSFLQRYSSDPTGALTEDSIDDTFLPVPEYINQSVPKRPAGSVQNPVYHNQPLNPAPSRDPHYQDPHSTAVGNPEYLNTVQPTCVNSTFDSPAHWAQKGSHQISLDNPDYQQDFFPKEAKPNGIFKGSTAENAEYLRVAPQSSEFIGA
Put plainly: EGFR biochemical enzyme assay (HTRF KinEASE TK). The settings on record: 30 μM ATP. The method, then: The inhibitory activity of a compound against EGFR (T790M/L858R) were determined with CisBio HTRF (homogenous time-resolved fluorescence) KinEASE TK (#62TKOPEC). The enzyme reaction contained recombinant N-terminal GST-tagged human EGFR (T790M/L858R), which phosphorylates the HTRF tyrosine kinase biotinylated substrate.
The sequence of the substrate is proprietary to CisBio. Test compounds were serially diluted in 100% (v/v) DMSO before being acoustically dispensed from an Echo 555 (Labcyte) into black Corning 1536-well assay plates. Kinase activity assays were performed in a total reaction volume of 3 μL per well. A 1.5 μL enzyme reaction consisted of 1.6 nM EGFR ([…], L858R), 1 mM DTT, and 10 mM MgCl2. A 1.5 μL substrate mix consisted of 1 μM TK substrate, 30 μM ATP, 1 mM DTT, and 10 mM MgCl2. Following a 50 mins incubation, 3 μL of stop mix was added, which consisted of 250 nM Strep-XL665 and TK Ab-Cryptate diluted in kit detection buffer. The plates were incubated for 1 h before being read on Pherastar using standard HTRF settings. N-terminal GST-tagged recombinant human EGF receptor, with amino acids 696-end containing the T790M and L858R mutations, was obtained from Millipore.
Background: In TR-FRET formats the signal depends on donor and acceptor labels being close together.

For assay [8], the system named is H1975 (L858R/T790M) cells. Put plainly: EGFR cell proliferation assay (CellTiter-Glo), H1975. The format is cell-based. The settings on record: Homo sapiens, NCI-H1975, 3-5 days. As to the method:
as §1, §2, §3
(In general: In ATP-based viability assays light output follows the ATP content of the culture.)

The target in assay [9] is EGFR L858R (Homo sapiens, UniProt P00533, L858R). The assay can be described thus: EGFR biochemical enzyme assay, L858R.

Molecules are shown by their SMILES.

EGFR Wt, sequence (P00533 25-1210): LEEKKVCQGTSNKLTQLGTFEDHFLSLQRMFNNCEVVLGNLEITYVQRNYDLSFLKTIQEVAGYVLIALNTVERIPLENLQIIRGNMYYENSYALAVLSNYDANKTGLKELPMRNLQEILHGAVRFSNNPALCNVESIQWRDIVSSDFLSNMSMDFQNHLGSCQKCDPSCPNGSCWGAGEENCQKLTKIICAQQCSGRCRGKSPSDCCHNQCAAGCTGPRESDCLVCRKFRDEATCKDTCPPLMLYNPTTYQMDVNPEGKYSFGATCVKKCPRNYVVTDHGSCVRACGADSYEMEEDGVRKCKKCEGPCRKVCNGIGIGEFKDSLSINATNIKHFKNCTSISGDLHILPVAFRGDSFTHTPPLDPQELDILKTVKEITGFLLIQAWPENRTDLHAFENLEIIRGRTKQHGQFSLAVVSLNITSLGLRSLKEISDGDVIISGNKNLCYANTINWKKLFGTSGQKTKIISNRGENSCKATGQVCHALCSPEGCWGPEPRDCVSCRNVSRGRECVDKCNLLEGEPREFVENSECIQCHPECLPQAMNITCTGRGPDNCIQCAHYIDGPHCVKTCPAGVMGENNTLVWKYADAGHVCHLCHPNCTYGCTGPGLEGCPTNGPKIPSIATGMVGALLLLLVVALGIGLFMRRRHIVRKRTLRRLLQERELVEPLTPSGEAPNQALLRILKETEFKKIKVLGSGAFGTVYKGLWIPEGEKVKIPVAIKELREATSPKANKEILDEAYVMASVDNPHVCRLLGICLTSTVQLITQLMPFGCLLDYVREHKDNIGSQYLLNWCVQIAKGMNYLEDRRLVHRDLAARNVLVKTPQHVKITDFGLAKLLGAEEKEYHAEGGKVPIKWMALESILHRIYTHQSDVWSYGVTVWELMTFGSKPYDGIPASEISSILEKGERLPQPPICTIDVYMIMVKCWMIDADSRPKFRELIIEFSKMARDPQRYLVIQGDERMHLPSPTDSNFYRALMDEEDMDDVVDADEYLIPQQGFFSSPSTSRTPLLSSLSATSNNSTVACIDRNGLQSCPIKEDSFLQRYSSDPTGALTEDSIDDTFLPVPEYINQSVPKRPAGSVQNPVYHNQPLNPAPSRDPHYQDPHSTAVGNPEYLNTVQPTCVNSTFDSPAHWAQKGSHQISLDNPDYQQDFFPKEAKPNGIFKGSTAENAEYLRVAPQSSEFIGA
IGF1R, sequence (P08069 31-1367, species assumed): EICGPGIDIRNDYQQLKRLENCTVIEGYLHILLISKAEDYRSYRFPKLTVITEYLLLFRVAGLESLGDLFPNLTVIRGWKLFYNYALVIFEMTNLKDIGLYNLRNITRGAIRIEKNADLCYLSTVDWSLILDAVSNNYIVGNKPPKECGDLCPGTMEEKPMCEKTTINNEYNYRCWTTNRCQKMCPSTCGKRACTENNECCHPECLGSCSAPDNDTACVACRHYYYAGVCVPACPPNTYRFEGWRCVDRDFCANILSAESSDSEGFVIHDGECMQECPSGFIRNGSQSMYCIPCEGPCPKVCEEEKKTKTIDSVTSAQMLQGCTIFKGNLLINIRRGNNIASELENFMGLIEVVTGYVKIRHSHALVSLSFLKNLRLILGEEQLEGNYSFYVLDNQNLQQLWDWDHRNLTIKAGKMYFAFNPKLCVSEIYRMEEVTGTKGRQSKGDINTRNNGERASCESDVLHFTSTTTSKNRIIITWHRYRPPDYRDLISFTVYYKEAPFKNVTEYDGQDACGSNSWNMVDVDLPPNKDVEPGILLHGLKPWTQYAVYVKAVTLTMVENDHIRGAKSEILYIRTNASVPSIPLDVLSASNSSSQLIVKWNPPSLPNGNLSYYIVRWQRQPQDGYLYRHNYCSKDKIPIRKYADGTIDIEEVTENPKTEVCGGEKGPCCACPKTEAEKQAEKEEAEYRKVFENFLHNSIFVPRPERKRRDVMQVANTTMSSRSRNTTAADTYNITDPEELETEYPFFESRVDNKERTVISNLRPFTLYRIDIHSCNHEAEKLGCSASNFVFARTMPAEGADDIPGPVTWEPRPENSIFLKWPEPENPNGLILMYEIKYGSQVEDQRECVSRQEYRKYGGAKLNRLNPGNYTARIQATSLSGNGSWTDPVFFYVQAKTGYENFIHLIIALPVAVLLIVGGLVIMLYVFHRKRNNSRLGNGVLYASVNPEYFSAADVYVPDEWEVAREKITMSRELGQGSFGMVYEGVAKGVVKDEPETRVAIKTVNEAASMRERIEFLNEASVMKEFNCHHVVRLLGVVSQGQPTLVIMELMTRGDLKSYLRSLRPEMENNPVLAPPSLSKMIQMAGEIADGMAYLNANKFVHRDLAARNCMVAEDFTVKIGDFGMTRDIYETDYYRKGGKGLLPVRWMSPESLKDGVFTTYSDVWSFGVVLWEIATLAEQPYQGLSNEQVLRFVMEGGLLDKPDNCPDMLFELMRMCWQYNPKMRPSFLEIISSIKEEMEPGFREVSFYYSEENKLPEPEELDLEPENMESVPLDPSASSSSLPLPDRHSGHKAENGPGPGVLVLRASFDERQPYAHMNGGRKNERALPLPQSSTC

In the case of `C=CC(=O)N[C@@H]1CN(c2nc(Nc3cn([C@H]4CCN(C)C4)nc3OC)c3ncc(C)n3n2)C[C@H]1F` [Example 2, N-((3R,4R)-4-fluoro-1-(4-((3-methoxy-1-((S)-1-methylpyrrolidin-3-yl)-1H-pyrazol-4-yl)amino)-7-methylimidazo[2,1-f][1,2,4]triazin-2-yl)pyrrolidin-3-yl)acrylamide], the IC50 (in general, the midpoint of a concentration-inhibition curve) is no more than 10 nM in assay [1]; less than 50 nM in [2]; no less than 100 nM in [3]; no less than 100 nM in assay [4]; 50 to 300 nM in [5]; no more than 10 nM in [6]. In addition, the values for the IC50 in assay [7] and in assay [8] were no more than 10 nM and less than 50 nM, respectively.
Consider `C=CC(=O)N[C@@H]1CN(c2nc(Nc3cn(C)nc3OC)c3ncn(C45CC(C4)C5)c3n2)C[C@H]1F` (racemic) [Example 6, N-((3R,4R)-1-(9-(bicyclo[1.1.1]pentan-1-yl)-6-((3-methoxy-1-methyl-1H-pyrazol-4-yl)amino)-9H-purin-2-yl)-4-fluoropyrrolidin-3-yl)acrylamide], for which the IC50 was no more than 10 nM in [1]; less than 50 nM in assay [2]; no less than 100 nM in assay [3]; no less than 100 nM in assay [4]; no more than 10 nM in [9]; no less than 300 nM in assay [5]. The figures for the IC50 in assay [6], in assay [7] and in assay [8] were no more than 10 nM, no more than 10 nM and 50 to 300 nM, respectively.
In the case of `C=CC(=O)N[C@@H]1CN(c2nc(Nc3cn(C)nc3OC)c3ncc(C)n3n2)C[C@H]1F` [Example 1, N-((3R,4R)-4-fluoro-1-(4-((3-methoxy-1-methyl-1H-pyrazol-4-yl)amino)-7-methylimidazo[2,1-f][1,2,4]triazin-2-yl)pyrrolidin-3-yl)acrylamide], the IC50 was no more than 10 nM in assay [1]; less than 50 nM in assay [2]; no less than 100 nM in assay [3]; no less than 100 nM in assay [4]; no more than 10 nM in assay [9]; no less than 300 nM in [5]. Further, the results for the IC50 in [6], in assay [7] and in assay [8] were no more than 10 nM, no more than 10 nM and less than 50 nM, respectively.
In the case of `C=CC(=O)N[C@@H]1CN(c2nc(Nc3cn(C4CCN(C)CC4)nc3OC)c3ncc(C)n3n2)C[C@H]1F` [Example 4, N-((3R,4R)-4-fluoro-1-(4-((3-methoxy-1-(1-methylpiperidin-4-yl)-1H-pyrazol-4-yl)amino)-7-methylimidazo[2,1-f][1,2,4]triazin-2-yl)pyrrolidin-3-yl)acrylamide], the IC50 is no more than 10 nM in assay [1]; less than 50 nM in assay [2]; no less than 100 nM in assay [3]; no less than 100 nM in assay [4]; 50 to 300 nM in assay [5]; no more than 10 nM in assay [6]. Further, the IC50 in assay [7] is no more than 10 nM; in assay [8], less than 50 nM.
Regarding `C=CC(=O)N[C@@H]1CN(c2nc(Nc3cn(CCN(C)C)nc3OC)c3ncc(C)n3n2)C[C@H]1F` [Example 5, N-((3R,4R)-1-(4-((1-(2-(dimethylamino)ethyl)-3-methoxy-1H-pyrazol-4-yl)amino)-7-methylimidazo[2,1-f][1,2,4]triazin-2-yl)-4-fluoropyrrolidin-3-yl)acrylamide], the IC50 was no more than 10 nM in assay [1]; less than 50 nM in assay [2]; no less than 100 nM in assay [3]; no less than 100 nM in [4]; 50 to 300 nM in assay [5]; no more than 10 nM in [6]. Further, the IC50 in assay [7] was no more than 10 nM; in assay [8], less than 50 nM.
